Tests used:
[1] = tested on: α1; experiment: α1; type: binding
[2] = biological target: T1, dopamine autoreceptor (D2) (Rattus norvegicus, UniProt P61169); experiment: Affinity for the dopamine autoreceptor: 3H-quinpirole (Quin.) binding in homogenized rat striatal brain tissue
T1 construct: homogenized rat striatal brain tissue is incubated with; from tissue; host or cells: rat striatal brain tissue, homogenized

[3] = biological target: T2, dopamine D-2 receptor (Rattus norvegicus, UniProt P61169); experiment: Affinity for the dopamine D-2 receptor: 3H-spiroperidol (Spiper.) binding in homogenized limbic brain tissue; settings: read-out: IC50 D2 Spiper.
T2 construct: homogenized limbic brain tissue is incubated with; from tissue; host or cells: limbic brain tissue, homogenized

[4] = biological target: T3, 5-HT1a (Homo sapiens, UniProt P08908); experiment: 5-HT1a; type: binding
T3 sequence (P08908 1-422): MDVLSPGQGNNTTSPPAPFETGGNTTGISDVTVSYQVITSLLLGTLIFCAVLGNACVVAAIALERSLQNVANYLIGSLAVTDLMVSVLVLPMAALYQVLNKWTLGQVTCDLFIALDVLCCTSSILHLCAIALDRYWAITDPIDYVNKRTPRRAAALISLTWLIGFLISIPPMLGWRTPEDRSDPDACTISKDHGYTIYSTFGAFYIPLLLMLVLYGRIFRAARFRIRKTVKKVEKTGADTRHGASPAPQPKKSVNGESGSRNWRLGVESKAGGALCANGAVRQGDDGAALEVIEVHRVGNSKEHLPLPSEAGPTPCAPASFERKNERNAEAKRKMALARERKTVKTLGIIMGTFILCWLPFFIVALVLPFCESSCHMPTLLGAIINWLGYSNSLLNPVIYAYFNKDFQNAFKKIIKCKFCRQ

T2 sequence (P61169 whole entry): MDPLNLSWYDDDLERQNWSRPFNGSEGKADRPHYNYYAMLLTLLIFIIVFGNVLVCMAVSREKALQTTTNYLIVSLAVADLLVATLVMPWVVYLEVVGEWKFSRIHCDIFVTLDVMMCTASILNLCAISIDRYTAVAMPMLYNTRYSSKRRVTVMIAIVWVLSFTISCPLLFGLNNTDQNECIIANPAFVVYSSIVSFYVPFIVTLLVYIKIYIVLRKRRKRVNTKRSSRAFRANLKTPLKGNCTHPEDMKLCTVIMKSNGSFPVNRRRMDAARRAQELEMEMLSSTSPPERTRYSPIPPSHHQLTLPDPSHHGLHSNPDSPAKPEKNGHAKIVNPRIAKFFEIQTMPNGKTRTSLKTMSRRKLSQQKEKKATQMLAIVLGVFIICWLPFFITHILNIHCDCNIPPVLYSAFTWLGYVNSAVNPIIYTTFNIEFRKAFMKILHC
T1 sequence (P61169 whole entry): as above

IC50 [2] [µM]	IC50 [3] [µM]	IC50 [4] [µM]	Structure (SMILES)	IC50 [1] [µM]
–	–	–	c1ccc(CNCC2CCc3ccccc3O2)cc1 (centres unmarked) [reference compound]	0.63
0.184	4.86	0.218	CCCNCC1CCc2ccc(NS(C)(=O)=O)cc2O1 (centres unmarked) [Example 1c, N-(2-Propylaminomethyl-chroman-7-yl)-methanesulfonamide]	1.42

— patent publication US5663194A, “Chroman-2-ylmethylamino derivatives” (priority 1996, dated 1997)
